{
  "source": "patent US10005792B2",
  "about": "“Aminoindane-, aminotetrahydronaphthalene- and aminobenzocyclobutane-derived PRMT5-inhibitors” (CTXT PTY LTD, priority 2014, dated 2018)",
  "note": "Counter-ions that a name gives are not always drawn.",
  "data": [
    {"target": "Full-length PRMT5 enzyme co-expressed with MEP50 (Homo sapiens (Human), UniProt O14744)", "sequence (O14744 whole entry)": "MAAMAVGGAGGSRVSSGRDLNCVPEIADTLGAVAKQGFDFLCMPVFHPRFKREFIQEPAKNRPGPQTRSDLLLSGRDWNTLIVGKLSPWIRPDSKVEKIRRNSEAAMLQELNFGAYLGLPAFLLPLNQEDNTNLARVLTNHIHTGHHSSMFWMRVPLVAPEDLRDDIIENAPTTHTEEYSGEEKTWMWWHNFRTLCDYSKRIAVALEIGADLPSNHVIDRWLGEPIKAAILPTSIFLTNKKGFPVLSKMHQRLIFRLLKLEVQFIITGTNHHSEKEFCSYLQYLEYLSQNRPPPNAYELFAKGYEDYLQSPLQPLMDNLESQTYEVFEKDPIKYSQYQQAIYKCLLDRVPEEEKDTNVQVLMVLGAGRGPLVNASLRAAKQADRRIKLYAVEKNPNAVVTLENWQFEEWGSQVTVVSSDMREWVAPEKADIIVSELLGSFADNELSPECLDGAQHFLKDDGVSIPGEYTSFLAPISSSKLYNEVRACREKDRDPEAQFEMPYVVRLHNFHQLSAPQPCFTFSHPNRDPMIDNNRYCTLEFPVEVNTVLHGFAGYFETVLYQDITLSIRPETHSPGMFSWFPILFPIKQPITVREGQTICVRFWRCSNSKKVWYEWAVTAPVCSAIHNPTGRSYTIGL", "sequence (Q9BQA1 whole entry partner)": "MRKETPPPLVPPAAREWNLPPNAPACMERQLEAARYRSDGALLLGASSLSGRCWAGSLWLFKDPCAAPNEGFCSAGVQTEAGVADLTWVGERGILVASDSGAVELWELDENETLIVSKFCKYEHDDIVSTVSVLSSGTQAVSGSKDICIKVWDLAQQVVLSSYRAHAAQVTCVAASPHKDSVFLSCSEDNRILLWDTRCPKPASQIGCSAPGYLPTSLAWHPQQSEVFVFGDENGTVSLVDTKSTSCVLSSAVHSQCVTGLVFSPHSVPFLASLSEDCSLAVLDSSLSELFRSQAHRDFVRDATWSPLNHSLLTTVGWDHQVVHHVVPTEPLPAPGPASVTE", "experiment": "Revised PRMT5 Biochemical Assay", "settings": "1 μM histone H4 derived peptide substrate, 1 μM S-Adenosyl methionine, 4 hours at 37 degree Celsius, Transcreener EPIGEN fluorescence polarisation", "protocol": "Compounds of the invention may be tested for in vitro activity in the following assay: A histone H4 derived peptide is used as substrate (amino acid sequence: […]NH2). Full-length PRMT5 enzyme (NCBI Reference sequence NP-006100.2) was co-expressed with Hiss-MEP50 in insect cells and purified via Nickel immobilized metal affinity and gel filtration chromatography (“the enzyme”).\nThe 6 μL reactions are run in Greiner brand black 384-well low volume assay plates. All reactions contained assay buffer (phosphate buffered saline, 0.01% (v/v) Tween-20, 0.01% (w/v) albumin from chicken egg white, 1 mM Dithiothreitol, 1 μM peptide substrate, 1 μM S-Adenosyl methionine, and 15 ng/reaction enzyme, with the enzyme being omitted from negative control reactions. Compounds were added in a volume of 100 nL from dilution series prepared in DMSO, positive and negative control reactions receiving the same volume DMSO without compound. The plates were sealed with adhesive seals and incubated for 4 hours at 37 degree Celsius. Reaction progress was measured using the Transcreener™ EPIGEN methyltransferase assay (BellBrook Labs, Madison, Wis.) as recommended by the manufacturer. To each reaction 2 μL detection mix were added, containing coupling enzymes, fluorescence polarisation tracer, and AMP antibody. Plates were incubated for 90 minutes before being read on a PerkinElmer EnVision™ plate reader in fluorescence polarisation mode. IC50 values were obtained from the raw readings by calculating percent inhibition (% I) for each reaction relative to controls on the same plate (% I=(I−CN)/(CP−CN) where CN/CP are the averages of the negative/positive reactions, respectively), then fitting the % I data vs. compound concentration [I] to % I=([…]) where A is the lower asymptote, B is the upper asymptote, C is the IC50 value, and D is the slope.", "units": {"IC50": "nM"}, "values": [
      {"compound": "O=C(NCC(O)CNC1Cc2ccccc2C1)c1ccc(C(=O)N2CCCCC2)nc1", "note": "(racemic) [Compound 67, N-(3-((2,3-dihydro-1H-inden-2-yl)amino)-2-hydroxypropyl)-6-(piperidine-1-carbonyl)nicotinamide]", "IC50": 6870},
      {"compound": "CCCOc1ccccc1C(=O)NCC(O)CNC1Cc2ccccc2C1", "note": "(racemic) [Compound 73, N-(3-((2,3-dihydro-1H-inden-2-yl)amino)-2-hydroxypropyl)-2-propoxybenzamide]", "IC50": 4380},
      {"compound": "CC(C)Oc1ccccc1C(=O)NCC(O)CNC1Cc2ccccc2C1", "note": "(racemic) [Compound 74, N-(3-((2,3-dihydro-1H-inden-2-yl)amino)-2-hydroxypropyl)-2-isopropoxybenzamide]", "IC50": 3130},
      {"compound": "COCc1ccccc1C(=O)NCC(O)CNC1Cc2ccccc2C1", "note": "(racemic) [Compound 79, N-(3-((2,3-dihydro-1H-inden-2-yl)amino)-2-hydroxypropyl)-2-(methoxymethyl)benzamide]", "IC50": 24000},
      {"compound": "O=C(NCC(O)CNC1Cc2ccccc2C1)c1ccn(Cc2ccccc2)c(=O)c1", "note": "(racemic) [Compound 82, 1-benzyl-N-(3-((2,3-dihydro-1H-inden-2-yl)amino)-2-hydroxypropyl)-2-oxo-1,2-dihydropyridine-4-carboxamide]", "IC50": 1810},
      {"compound": "CC(=O)N1CCN(C(=O)Cc2ccc(C(=O)NCC(O)CNC3Cc4ccccc4C3)cc2)CC1", "note": "(racemic) [Compound 83, 4-(2-(4-acetylpiperazin-1-yl)-2-oxoethyl)-N-(3-((2,3-dihydro-1H-inden-2-yl)amino)-2-hydroxypropyl)benzamide]", "IC50": 3460},
      {"compound": "CC(=O)N1CCN(C(=O)c2ccc(C(=O)NCC(O)CNC3Cc4ccccc4C3)cc2)CC1", "note": "(racemic) [Compound 84, 4-(4-acetylpiperazine-1-carbonyl)-N-(3-((2,3-dihydro-1H-inden-2-yl)amino)-2-hydroxypropyl)benzamide]", "IC50": 585},
      {"compound": "Cn1ccc(C(=O)NCC(O)CNC2Cc3ccccc3C2)cc1=O", "note": "(racemic) [Compound 85, N-(3-((2,3-dihydro-1H-inden-2-yl)amino)-2-hydroxypropyl)-1-methyl 2-oxo-1,2-dihydropyridine-4-carboxamide]", "IC50": 7680},
      {"compound": "O=C(NCC(O)CNC1Cc2ccccc2C1)c1ccc2c(c1)CN(C(=O)CC1CC1)C2", "note": "(racemic) [Compound 92, 2-(2-cyclopropylacetyl)-N-(3-((2,3-dihydro-1H-inden-2-yl)amino)-2-hydroxypropyl)isoindoline-5-carboxamide]", "IC50": 1380},
      {"compound": "O=C(NCC(O)CNC1Cc2ccccc2C1)c1ccc2c(c1)CN(C(=O)CC1CC1)CC2", "note": "(racemic) [Compound 93, 2-(2-cyclopropylacetyl)-N-(3-((2,3-dihydro-1H-inden-2-yl)amino)-2-hydroxypropyl)-1,2,3,4-tetrahydroisoquinoline-7-carboxamide]", "IC50": 505},
      {"compound": "O=C(NCC(O)CNC1Cc2ccccc2C1)c1ccc2c(c1)CCN(C(=O)CC1CC1)C2", "note": "(racemic) [Compound 94, 2-(2-cyclopropylacetyl)-N-(3-((2,3-dihydro-1H-inden-2-yl)amino)-2-hydroxypropyl)-1,2,3,4-tetrahydroisoquinoline-6-carboxamide]", "IC50": 1350},
      {"compound": "CC(=O)N1CCc2cc(C(=O)NCC(O)CNC3Cc4ccccc4C3)ccc2C1", "note": "(racemic) [Compound 95, 2-acetyl-N-(3-((2,3-dihydro-1H-inden-2-yl)amino)-2-hydroxypropyl)-1,2,3,4-tetrahydroisoquinoline-6-carboxamide]", "IC50": 931},
      {"compound": "CC(=O)N1CCc2ccc(C(=O)NCC(O)CNC3Cc4ccccc4C3)cc2C1", "note": "(racemic) [Compound 96, 2-acetyl-N-(3-((2,3-dihydro-1H-inden-2-yl)amino)-2-hydroxypropyl)-1,2,3,4-tetrahydroisoquinoline-7-carboxamide]", "IC50": 733},
      {"compound": "O=C(NCC(O)CNC1Cc2ccccc2C1)c1ccccc1OCC(F)(F)F", "note": "(racemic) [Compound 97, N-(3-((2,3-dihydro-1H-inden-2-yl)amino)-2-hydroxypropyl)-2-(2,2,2-trifluoroethoxy)benzamide]", "IC50": 4320},
      {"compound": "C[C@@H]1COC[C@@H](C)N1C(=O)c1ccc(C(=O)NCC(O)CNC2Cc3ccccc3C2)cc1", "note": "(mixture of isomers) [Compound 101, N-(3-((2,3-dihydro-1H-inden-2-yl)amino)-2-hydroxypropyl)-4-((3R,5R)-3,5-dimethylmorpholine-4-carbonyl)benzamide]", "IC50": 457},
      {"compound": "CC(=O)N1CCC(Nc2cccc(C(=O)NC[C@@H](O)CNC3Cc4ccccc4C3)c2)CC1", "note": "[Compound 42, (S)-3-((1-Acetylpiperidin-4-yl)amino)-N-(3-((2,3-dihydro-1H-inden-2-yl)amino)-2-hydroxypropyl)benzamide]", "IC50": 137},
      {"compound": "CN(c1cc(C(=O)NCC(O)CNC2Cc3ccccc3C2)ccn1)C1CCCC1", "note": "(stereo not shown) [Compound 43, 2-(cyclopentyl(methyl)amino)-N-(3-((2,3-dihydro-1H-inden-2-yl)amino)-2-hydroxypropyl)isonicotinamide]", "IC50": 1010},
      {"compound": "O=C(NCC(O)CNC1Cc2ccccc2C1)c1ccnc(NC2CCCC2)c1", "note": "(stereo not shown) [Compound 44, 2-(cyclopentylamino)-N-(3-((2,3-dihydro-1H-inden-2-yl)amino)-2-hydroxypropyl)isonicotinamide]", "IC50": 373},
      {"compound": "O=C(NCC(O)CNC1Cc2ccccc2C1)c1cc(-c2ccccn2)[nH]n1", "note": "(stereo not shown) [Compound 45, N-(3-((2,3-dihydro-1H-inden-2-yl)amino)-2-hydroxypropyl)-5-(pyridin-2-yl)-1H-pyrazole-3-carboxamide]", "IC50": 12800},
      {"compound": "O=C(NCC(O)CNC1Cc2ccccc2C1)c1cnn(-c2cccnc2)c1", "note": "(stereo not shown) [Compound 46, N-(3-((2,3-dihydro-1H-inden-2-yl)amino)-2-hydroxypropyl)-1-(pyridin-3-yl)-1H-pyrazole-4-carboxamide]", "IC50": 4990},
      {"compound": "O=C(NCC(O)CNC1Cc2ccccc2C1)c1ccnc(N2CCOCC2)c1", "note": "(stereo not shown) [Compound 47, N-(3-((2,3-dihydro-1H-inden-2-yl)amino)-2-hydroxypropyl)-2-morpholinoisonicotinamide]", "IC50": 11400},
      {"compound": "O=C(NCC(O)CNC1Cc2ccccc2C1)c1ccnc(N2CCCC2)c1", "note": "(stereo not shown) [Compound 48, N-(3-((2,3-dihydro-1H-inden-2-yl)amino)-2-hydroxypropyl)-2-(pyrrolidin-1-yl)isonicotinamide]", "IC50": 4780},
      {"compound": "O=C(NCC(O)CNC1Cc2ccccc2C1)c1ccnc(-n2cccn2)c1", "note": "(stereo not shown) [Compound 49, N-(3-((2,3-dihydro-1H-inden-2-yl)amino)-2-hydroxypropyl)-2-(1H-pyrazol-1-yl)isonicotinamide]", "IC50": 25300},
      {"compound": "CC(=O)N1CCC(Oc2cc(C(=O)NCC(O)CNC3Cc4ccccc4C3)ccn2)CC1", "note": "(stereo not shown) [Compound 50, 2-((1-Acetylpiperidin-4-yl)oxy)-N-(3-((2,3-dihydro-1H-inden-2-yl)amino)-2-hydroxypropyl)isonicotinamide]", "IC50": 466},
      {"compound": "O=C(NCC(O)CNC1Cc2ccccc2C1)c1ccnc(OC2CCNCC2)c1", "note": "(stereo not shown) [Compound 51, N-(3-((2,3-dihydro-1H-inden-2-yl)amino)-2-hydroxypropyl)-2-(piperidin-4-yloxy)isonicotinamide]", "IC50": 709},
      {"compound": "CC(=O)N1CCC(Nc2cncc(C(=O)NCC(O)CNC3Cc4ccccc4C3)n2)CC1", "note": "(stereo not shown) [Compound 52, 6-((1-Acetylpiperidin-4-yl)amino)-N-(3-((2,3-dihydro-1H-inden-2-yl)amino)-2-hydroxypropyl)pyrazine-2-carboxamide]", "IC50": 74600},
      {"compound": "CC(=O)N1CCC(Nc2nccc(C(=O)NCC(O)CNC3Cc4ccccc4C3)n2)CC1", "note": "(stereo not shown) [Compound 54, 2-((1-Acetylpiperidin-4-yl)amino)-N-(3-((2,3-dihydro-1H-inden-2-yl)amino)-2-hydroxypropyl)pyrimidine-4-carboxamide]", "IC50": 5770},
      {"compound": "CC(=O)N1CCC(Nc2cccc(C(=O)NCC(O)CNC3Cc4ccccc4C3)n2)CC1", "note": "(stereo not shown) [Compound 57, 6-((1-Acetylpiperidin-4-yl)amino)-N-(3-((2,3-dihydro-1H-inden-2-yl)amino)-2-hydroxypropyl)picolinamide]", "IC50": 2530},
      {"compound": "CC(=O)N1CC(Nc2cc(C(=O)NCC(O)CNC3Cc4ccccc4C3)ncn2)C1", "note": "(stereo not shown) [Compound 58, 6-((1-Acetylazetidin-3-yl)amino)-N-(3-((2,3-dihydro-1H-inden-2-yl)amino)-2-hydroxypropyl)pyrimidine-4-carboxamide 2,2,2-trifluoroacetic acid salt]", "IC50": 883},
      {"compound": "CC(=O)N1CCC(Nc2cc(C(=O)NCC(O)CNC3Cc4ccccc4C3)ncn2)CC1", "note": "(stereo not shown) [Compound 59, 6-((1-Acetylpiperidin-4-yl)amino)-N-(3-((2,3-dihydro-1H-inden-2-yl)amino)-2-hydroxypropyl)pyrimidine-4-carboxamide 2,2,2-trifluoroacetic acid salt]", "IC50": 487},
      {"compound": "O=C(NC[C@@H](O)CNC1Cc2ccccc2C1)c1ccc(C(=O)N2CCC(O)CC2)cc1", "note": "[Compound 60, (S)-N-(3-((2,3-dihydro-1H-inden-2-yl)amino)-2-hydroxypropyl)-4-(4-hydroxypiperidine-1-carbonyl)benzamide]", "IC50": 630}
    ]}
  ]
}
